In US20080146624A1, “AMIDINES AS MODULATORS OF INDOLEAMINE 2,3-DIOXYGENASE” (INCYTE CORPORATION, priority 2006, published 2008) one finds formation of tumors, growth of tumors and IC50 data, which are given here for three compounds.

Assay [1] concerns LLC tumors. The conditions noted are these: C57B1/6 mice, versus placebo; cited from earlier work.
Assay [2] relates to P815 tumor. The conditions noted are these: pre-immunized immune-competent mice; cited from earlier work.
The target of assay [3] is T1, Human indoleamine 2,3-dioxygenasae (IDO) (Homo sapiens, UniProt P14902).
T1 construct: His tag (N); made in house; host or cells: E. coli
The experiment in a line: Human indoleamine 2,3-dioxygenase (IDO) enzyme assay. It counts as biochemical. The conditions noted are these: 95 nM IDO, 2 mM D-Trp, pH 6.5, room temperature, absorbance at 321 nm. The protocol: Human indoleamine 2,3-dioxygenasae (IDO) with an N-terminal His tag was expressed in E. coli and purified to homogeneity. IDO catalyzes the oxidative cleavage of the pyrrole ring of the indole nucleus of tryptophan to yield N′-formylkynurenine. The assays were performed at room temperature as described in the literature using 95 nM IDO and 2 mM D-Trp in the presence of 20 mM ascorbate, 5 μM methylene blue and 0.2 mg/mL catalase in 50 mM potassium phosphate buffer (pH 6.5). The initial reaction rates were recorded by continuously following the absorbance increase at 321 nm due to the formation of N′-formlylkynurenine. […] The symbol “+” indicates IC50<[…]. The symbol “++” indicates […]. The symbol “+++” indicates IC50>[…].

Usually IC50 stands for the concentration that inhibits the measured activity by half.

T1 sequence (P14902 whole entry): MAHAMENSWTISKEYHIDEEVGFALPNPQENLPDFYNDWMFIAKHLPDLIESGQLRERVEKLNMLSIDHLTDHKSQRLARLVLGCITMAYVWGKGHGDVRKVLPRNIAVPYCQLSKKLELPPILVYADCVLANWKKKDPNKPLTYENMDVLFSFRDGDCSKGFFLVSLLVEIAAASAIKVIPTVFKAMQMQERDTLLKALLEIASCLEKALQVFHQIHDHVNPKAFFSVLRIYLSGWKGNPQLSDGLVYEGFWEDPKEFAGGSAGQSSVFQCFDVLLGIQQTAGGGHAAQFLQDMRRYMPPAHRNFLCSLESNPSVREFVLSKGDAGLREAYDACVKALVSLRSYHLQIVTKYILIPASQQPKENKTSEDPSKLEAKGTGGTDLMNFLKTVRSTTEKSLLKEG

In the case of `Cn1cc(C[C@H](N)C(=O)O)c2ccccc21` [Example 1-MT, 1-methyl-tryptophan], the formation of tumors entry in assay [1] was “markedly delayed”. The growth of tumors entry in assay [2] is “inhibited”.

`N#Cc1cccc(NC(=NO)c2ccoc2)c1` [Example 11, N-(3-cyanophenyl)-N′-hydroxy-furan-3-carboximidamide] had an IC50 in assay [3] of more than 10 µM.

`N#Cc1cc(NC(=NO)c2ccoc2)ccc1F` [Example 12, N-(3-cyano-4-fluorophenyl)-N′-hydroxyfuran-3-carboximidamide] had an IC50 in assay [3] of more than 10 µM.
